Values after ≈ are worked out from the molar mass of the structure shown. Like-named read-outs stand apart in the source and are kept apart here.
Legend:
in vitro [1] = assay type: in vitro ADME; settings: plasma, pH 7.4
Method: Plasma protein binding was determined using the Rapid Equilibrium Dialysis (RED) system (Thermo Fisher Scientific, Waltham MA, USA). Compounds were diluted to 10 µM in 50% murine (CD-1), human or Wistar rat plasma (Neo Biotech, Nanterre, France) in PBS pH 7.4 and added to the respective chamber according to the manufacturer’s protocol, followed by addition of PBS pH 7.4 to the opposite chamber. Samples were taken immediately after addition to the plate as well as after 2, 4 and 5 h by mixing 10 µL with 80 µL ice-cold ice-cold […]
(1 picture or pasted object on this page, not shown here) […]
(§1) by addition of 10 µL plasma to samples taken from PBS and vice versa. Samples were stored on ice until the end of the incubation and precipitated protein was removed by centrifugation (15 min, 4 °C, 4,000 g, 2 centrifugation steps). Concentration of the remaining test compound at the different time points was analyzed by HPLC-MS/MS (Vanquish Flex coupled to a TSQ Altis Plus, Thermo Fisher, Dreieich, Germany). […]
Germany). To obtain percent viability for each sample, their ODs were related to those of DMSO controls. At least three independent measurements were performed for each compound. The calculation of CC50 was performed using the nonlinear regression function of GraphPad Prism 10 (GraphPad Software, San Diego, CA, USA).

[2] = Metabolic stability in liver microsomes; settings: human
E. coli ΔtolC = assay: microbe, parasite or virus in culture; assay type: cell-based; settings: Escherichia coli
[3] = Metabolic stability in liver microsomes; settings: Wistar, rat
wt-M. tuberculosis H37Rv = assay: microbe, parasite or virus in culture; assay type: cell-based; settings: Mycobacterium tuberculosis
in vitro [4] = settings: human, microsomes, Liver microsomes Clint
in vitro [5] = assay type: in vitro ADME; settings: Wistar, rat, plasma
Method: (§2) To determine stability in plasma, the compound (1 µM) was incubated with pooled CD-1 mouse/human or Wistar rat plasma (Neo Biotech, Nanterre, France). Samples were taken by […]
(§3) 10% methanol/acetonitrile). The plasma stability of procain, propantheline and diltiazem were determined in parallel to confirm the enzymatic activity. Samples were stored on ice until the end of the incubation and precipitated protein was removed by centrifugation (15 min, 4 °C, 4,000 g, two centrifugation steps). Concentration of the remaining test compound at the different time points was analyzed by HPLC-MS/MS (Vanquish Flex coupled to a TSQ Altis Plus, Thermo Fisher, Dreieich, Germany). The plasma stability of procain, propantheline and diltiazem were determined in parallel to confirm the enzymatic activity. […]

wt-S. aureus Newman = assay type: cell-based; settings: Staphylococcus aureus
in vitro [6] = settings: Wistar, rat, microsomes
E. faecalis DSM-20478 = assay type: cell-based; settings: Enterococcus faecalis, DSM20478
[7] = Metabolic stability in liver microsomes; settings: C57BL/6, mouse
in vitro [8] = assay type: in vitro ADME; settings: mouse, hepatocytes
Method: Metabolic stability in mouse hepatocytes
For the evaluation of combined phase I and phase II metabolic stability, the compound (1 μM) was incubated with 0.25 x 10^6 cells/mL of pooled mouse hepatocytes (Xenotech, Kansas City, USA). Cells were thawed in Leibovitz’s L-15 medium without phenol red (ThermoFisher Scientific, Waltham, USA). Briefly, cells were transferred into 50 mL of medium, followed by centrifugation at 55 g for 3 min. Supernatant was discarded and the cell count determined after gently resuspending the cell pellet in 1 mL of medium. Hepatocytes were diluted to 0.5 x 10^6 cells/mL and incubated at 37 °C, 700 rpm for 10 min, to achieve the desired final cell count after addition of an equal volume of test compounds in medium, leading to final test concentration of 1 µM at 1% DMSO. Samples were incubated at 37 °C, for 240 min, 700 rpm and the incubation was stopped after defined time points by precipitation of aliquots in 4 […]
methanol/acetonitrile). The metabolic stability of testosterone, verapamil, ketoconazole and 7-hydroxycoumarine were determined in parallel to confirm the enzymatic activity of mouse hepatocytes. Samples were stored on ice until the end of the incubation and precipitated protein was removed by centrif ugation (15 min, 4 °C, 4. 000 g). […]

Rif^R-S. aureus Newman = assay: microbe, parasite or virus in culture; assay type: cell-based; settings: Staphylococcus aureus
Cytotoxicity assay (MTT) = assay type: cell-based; settings: human, HepG2 cells, HepG2, 100 μM
Method: as §1, with “Germany). The amount of compound bound to protein was calculated using the equation PPB [%] = 100 – 100 x (amount in buffer chamber/amount in” for “Germany).”
To obtain information regarding the toxicity of test compounds, their impact on the viability of human cells was investigated. HepG2 cells (2x10^4 cells per well) were seeded in 96-well, flat-bottomed culture plates in 100 µL culture medium (DMEM containing 10% fetal calve serum, 1% penicillin-streptomycin). Twenty-four hours after seeding the cells, medium was removed and replaced by medium containing test compounds in a final DMSO concentration of 1%.
Compounds were tested in duplicates at a single concentration or, for CC 50 determination, at 8 concentrations that were prepared via 2-fold serial dilutions in 1% DMSO/medium. Epirubicin and doxorubicin were used as positive controls in serial dilutions starting from 10 µM, and rifampicin was used as a negative control (at 100 µM). […]

M^R/V^R-S. aureus Mu50 = assay: microbe, parasite or virus in culture; assay type: cell-based; settings: Staphylococcus aureus
in vitro [9] = settings: C57BL/6, mouse, microsomes
in vitro [10] = assay type: in vitro ADME; settings: plasma
Method: Figure S6: Metabolic stability in human liver microsomes with CYP isozyme involvement. (A) Human microsomal metabolism of MXY A (1) and (B) for MXY (8) in presence of 10 µM CYP inhibitors for CYP3A4 (ketoconazole), CYP1A2 (fluvoxamine), CYP2C9 (sulfaphenazole) or CYP2D6 (quinidine). The remaining test compound compared to t=0 min is given. (C) Corresponding half-lives (t1/2s) and fold increase compared to t1/2 of the compound in absence of inhibitors. Values represent means ± standard deviation (SD) of at least 3 independent measurements. *Mean half-life in presence of DMSO represents only assays where direct comparison to CYP inhibitors was performed; Table 2 of the main text includes additional replicates.
as §2, §3

[11] = Wistar, rat, microsomes, 2 h, 1 µM
M^R -S. aureus N315 = assay: microbe, parasite or virus in culture; assay type: cell-based; settings: Staphylococcus aureus
[12] = human, 1 µM
[13] = stated as known, reference not given; cited from earlier work
[14] = Stability during large-scale production and isolation; settings: large-scale production, also with exclusion of light
From the text: We initially attempted the large-scale production of furan analog 14.

SMILES: COC(=O)N/C=C/CC[C@@H](C)c1cc(O)c(C(=O)/C(C)=C/C=C(\C)CCC(F)(F)F)c(=O)o1 [MYX (8)]
- fraction unbound at 10 µM (in vitro [1]; CD-1, mouse): 0.0036
- fraction unbound at 10 µM (in vitro [1]; Wistar, rat): 0.0049
- fraction unbound at 10 µM (in vitro [1]; human): 0.0162
- half-life at 1 µM [2]: 0.867 ± 0.217 h
- MIC (E. coli ΔtolC): 4 µg/mL (≈ 8.48 µM)
- half-life at 1 µM [3]: ~2 h
- MIC (wt-M. tuberculosis H37Rv): 2 µg/mL (≈ 4.24 µM)
- microsomal CLint at 1 µM (in vitro [4]): 28 µL/min/mg
- half-life at 1 µM (in vitro [5]): > 4 h
- MIC (wt-S. aureus Newman; NEWMAN): 2 µg/mL (≈ 4.24 µM)
- microsomal CLint at 1 µM (in vitro [6]): ~11.6 µL/min/mg
- MIC (E. faecalis DSM-20478): > 64 µg/mL
- half-life at 1 µM [7]: 1.13 ± 0.117 h
- half-life at 1 µM (in vitro [8]): > 4 h
- hepatocyte CLint at 1 µM (in vitro [8]): < 3.8 µL/min/1e6 cells
- MIC (Rif^R-S. aureus Newman): 2 µg/mL (≈ 4.24 µM)
- viability at 48 h, 100 µM (Cytotoxicity assay (MTT)): 44 ± 9%
- MIC (M^R/V^R-S. aureus Mu50): 1 to 2 µg/mL (≈ 2.12 to 4.24 µM)
- microsomal CLint at 1 µM (in vitro [9]): 21 µL/min/mg
- half-life at 1 µM (in vitro [10]; CD-1, mouse): > 4 h
- half-life at 1 µM (in vitro [10]; human): > 4 h
- Remaining amount of parent compound at 120 min [11]: 49 ± 13%
- MIC (M^R -S. aureus N315): 2 to 4 µg/mL (≈ 4.24 to 8.48 µM)

SMILES: CCC/C(C)=C/C=C(\C)C(=O)c1c(O)cc([C@H](C)CC/C=C/NC(=O)OC)oc1=O [MYX A (1), myxopyronins A]
- fraction unbound at 10 µM (in vitro [1]; CD-1, mouse): 0.0026
- fraction unbound at 10 µM (in vitro [1]; Wistar, rat): 0.0054
- fraction unbound at 10 µM (in vitro [1]; human): 0.0107
- half-life at 1 µM [2]: 0.122 ± 0.0417 h
- MIC (E. coli ΔtolC): 1 to 2 µg/mL (≈ 2.4 to 4.79 µM)
- half-life at 1 µM [3]: ~2 h
- MIC (wt-M. tuberculosis H37Rv): 4 µg/mL (≈ 9.58 µM)
- microsomal CLint at 1 µM (in vitro [4]): 157 µL/min/mg
- half-life at 1 µM (in vitro [5]): > 4 h
- MIC (wt-S. aureus Newman; NEWMAN): 2 to 4 µg/mL (≈ 4.79 to 9.58 µM)
- microsomal CLint at 1 µM (in vitro [6]): ~11.6 µL/min/mg
- Liver microsomes Clint [12]: 211 ± 37 µL/min/mg
- MIC (E. faecalis DSM-20478): > 64 µg/mL
- half-life at 1 µM [7]: 0.317 ± 0.0667 h
- half-life at 1 µM (in vitro [8]): > 4 h
- hepatocyte CLint at 1 µM (in vitro [8]): < 3.8 µL/min/1e6 cells
- MIC (Rif^R-S. aureus Newman): 2 µg/mL (≈ 4.79 µM)
- viability at 48 h, 100 µM (Cytotoxicity assay (MTT)): 39 ± 6%
- MIC (M^R/V^R-S. aureus Mu50): 1 to 2 µg/mL (≈ 2.4 to 4.79 µM)
- microsomal CLint at 1 µM (in vitro [9]): 76 µL/min/mg
- half-life at 1 µM (in vitro [10]; CD-1, mouse): > 4 h
- half-life at 1 µM (in vitro [10]; human): > 4 h
- Remaining amount of parent compound at 120 min [11]: 51 ± 12%
- MIC (M^R -S. aureus N315): 4 µg/mL (≈ 9.58 µM)

SMILES: CCCC/C(C)=C/C=C(\C)C(=O)c1c(O)cc([C@H](C)CC/C=C/NC(=O)OC)oc1=O [MYX B (2)]
- half-life in human liver microsomes [13]: 3 min

SMILES: COC(=O)N/C=C/CC[C@@H](C)c1cc(O)c(C(=O)/C(C)=C/C=C(\C)c2ccoc2)c(=O)o1 [compound 14]
- decomposition during fermentation and isolation [14]: highly susceptible to rapid decomposition

SMILES: CO[C@H]1/C=C/O[C@@]2(C)Oc3c(C)c(O)c4c(O)c(c(/C=N/N5CCN(C)CC5)c(O)c4c3C2=O)NC(=O)/C(C)=C\C=C\[C@H](C)[C@H](O)[C@@H](C)[C@@H](O)[C@@H](C)[C@H](OC(C)=O)[C@@H]1C [rifampin]
- MIC (E. coli ΔtolC): 16 µg/mL (≈ 19.4 µM)
- MIC (wt-M. tuberculosis H37Rv): 0.03 µg/mL (≈ 0.0365 µM)
- MIC (wt-S. aureus Newman; wt-S. aureus Newman, read-out: MIC): 0.005 µg/mL (≈ 0.00608 µM)
- MIC (E. faecalis DSM-20478; E. faecalis DSM-20478, read-out: MIC): 1 µg/mL (≈ 1.22 µM)
- MIC (Rif^R-S. aureus Newman): > 64 µg/mL
- MIC (M^R/V^R-S. aureus Mu50; methicillin- and vancomycin-resistant S. aureus Mu50, read-out: MIC): > 64 µg/mL
- MIC (M^R -S. aureus N315; methicillin-resistant S. aureus N315, read-out: MIC): 0.0025 µg/mL (≈ 0.00304 µM)

From paper PMC12728655, “Engineering an Artificial Myxopyronin Derivative with Enhanced Metabolic Stability via Mutasynthesis” (JACS Au, 2025)
